This is an account of results in patent US11161854B2, “Indazolyl-spiro[2.2]pentane-carbonitrile derivatives as LRRK2 inhibitors, pharmaceutical compositions, and uses thereof” (Merck Sharp & Dohme Corp., priority 2017, dated 2021).

The target of the experiment is GST-tagged truncated human mutant G2019S LRRK2 (Homo sapiens (Human), UniProt Q5S007, G2019S). The experiment can be described thus: LRRK2 G2019S Km ATP LanthaScreen Assay. It is filed as biochemical. The conditions noted are these: 134 μM ATP (Km ATP); fluorescein-labeled LRRKtide substrate; mean IC50 values. Here is the method: The IC50 values reported herein were measured as follows.
GST-tagged truncated human mutant G2019S LRRK2, sequence (Q5S007 970-2527 G2019S): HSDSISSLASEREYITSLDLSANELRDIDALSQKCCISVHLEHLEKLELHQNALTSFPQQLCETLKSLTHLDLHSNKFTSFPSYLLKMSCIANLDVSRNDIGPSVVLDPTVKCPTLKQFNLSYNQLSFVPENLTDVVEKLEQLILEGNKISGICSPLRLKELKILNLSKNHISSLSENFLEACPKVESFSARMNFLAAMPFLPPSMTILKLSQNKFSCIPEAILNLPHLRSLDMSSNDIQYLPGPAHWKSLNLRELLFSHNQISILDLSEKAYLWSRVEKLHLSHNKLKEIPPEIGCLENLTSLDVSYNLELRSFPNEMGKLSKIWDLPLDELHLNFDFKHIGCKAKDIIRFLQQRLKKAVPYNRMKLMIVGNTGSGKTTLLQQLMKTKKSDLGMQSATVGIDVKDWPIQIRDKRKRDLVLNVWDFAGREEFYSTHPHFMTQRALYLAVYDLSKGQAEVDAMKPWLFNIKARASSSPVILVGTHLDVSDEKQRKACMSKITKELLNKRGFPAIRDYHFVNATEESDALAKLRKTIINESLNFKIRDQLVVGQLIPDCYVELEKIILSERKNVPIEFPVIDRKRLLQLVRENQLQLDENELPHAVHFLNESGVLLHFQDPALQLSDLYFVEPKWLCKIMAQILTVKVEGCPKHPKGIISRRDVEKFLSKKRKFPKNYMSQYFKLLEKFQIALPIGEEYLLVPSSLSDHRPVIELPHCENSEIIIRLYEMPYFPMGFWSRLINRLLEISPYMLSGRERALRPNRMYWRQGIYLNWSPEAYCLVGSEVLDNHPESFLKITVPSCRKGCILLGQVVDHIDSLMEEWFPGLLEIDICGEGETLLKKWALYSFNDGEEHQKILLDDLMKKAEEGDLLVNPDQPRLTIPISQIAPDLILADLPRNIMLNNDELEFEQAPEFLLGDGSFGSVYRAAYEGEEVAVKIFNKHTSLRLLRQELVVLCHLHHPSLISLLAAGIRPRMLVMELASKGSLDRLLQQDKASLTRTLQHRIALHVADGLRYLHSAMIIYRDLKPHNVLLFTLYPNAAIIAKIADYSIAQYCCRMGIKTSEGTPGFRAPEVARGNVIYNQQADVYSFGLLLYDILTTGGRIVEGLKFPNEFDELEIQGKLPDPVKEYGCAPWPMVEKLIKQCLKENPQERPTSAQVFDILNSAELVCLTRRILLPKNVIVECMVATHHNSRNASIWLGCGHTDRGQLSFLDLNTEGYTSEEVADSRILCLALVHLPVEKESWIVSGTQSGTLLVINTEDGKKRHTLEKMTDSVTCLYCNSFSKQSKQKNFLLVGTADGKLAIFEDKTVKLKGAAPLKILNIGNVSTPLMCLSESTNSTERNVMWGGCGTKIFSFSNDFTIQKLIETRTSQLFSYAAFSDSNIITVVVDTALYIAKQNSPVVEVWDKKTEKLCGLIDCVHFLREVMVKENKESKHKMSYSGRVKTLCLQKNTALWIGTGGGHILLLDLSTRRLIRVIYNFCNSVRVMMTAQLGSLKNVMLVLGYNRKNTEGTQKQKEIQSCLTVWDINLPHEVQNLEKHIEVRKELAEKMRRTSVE
Biological Assay: LRRK2 Km ATP LanthaScreen™ Assay
The data presented for the Km ATP LanthaScreen™ Assay represents mean IC50 values based on several test results and may have reasonable deviations depending on the specific conditions and reagents used. Assays were performed in the presence of 134 μM ATP (Km ATP). Upon completion, the assay was stopped and phosphorylated substrate detected with a terbium (Tb)-labeled anti-pERM antibody (cat. no. PV4898). The compound dose response was prepared by diluting a 10 mM stock of compound to a maximum concentration of […] in 100% dimethylsulfoxide followed by custom fold serial dilution in dimethylsulfoxide nine times. Twenty nanoliters of each dilution was spotted via a Labcyte Echo onto a 384-well black-sided plate (Corning 3575) followed by 15 μl of a 1.25 nM enzyme solution in 1× assay buffer (50 mM Tris pH 8.5, 10 mM MgCl2, 0.01% Brij-35, 1 mM EGTA, 2 mM dithiothreitol, 0.05 mM sodium orthovanadate). Following a 15-minute incubation at room temperature, the kinase reaction was started with the addition of 5 μl of 400 nM fluorescein-labeled LRRKtide peptide substrate and 134 μM ATP solution in 1× assay buffer. The reaction was allowed to progress at ambient temperature for 90 minutes. The reaction was then stopped by the addition of 20 μl of TR-FRET Dilution Buffer (Life Technologies, Carlsbad, Calif.) containing 2 nM Tb-labeled anti-phospho LRRKtide antibody and 10 mM EDTA (Life Technologies, Carlsbad, Calif.). After an incubation of 1 hour at room temperature, the plate was read on an EnVision multimode plate reader (Perkin Elmer, Waltham, Mass.) with an excitation wavelength of 337 nm (Laser) and a reading emission at both 520 and 495 nm. […] Abase uses a 4 parameter (4P) logistic fit based on the Levenberg-Marquardt algorithm.

The compound `COc1nc(N2CC3(C(C)(C)O)CC2C3)cc(-n2ncc3ccc(C4(C#N)CC45CC5)cc32)n1` (single isomer, unassigned) [Example 2.5-2, 1-(1-(6-(4-(2-hydroxypropan-2-yl)-2-azabicyclo[2.1.1]hexan-2-yl)-2-methoxypyrimidin-4-yl)-1H-indazol-6-yl)spiro[2.2]pentane-1-carbonitrile] showed an IC50 of 0.8 nM. As to `CC1C(C(C)(C)O)CCN1c1cc(-n2ncc3ccc([C@@]4(C#N)CC45CC5)cc32)ncn1` (single isomer, unassigned) [Example 3.5-7], 5.1 nM corresponded to half-maximal inhibition (IC50). This IC50 is about 6.4-fold higher than that of the compound before. `Cc1cc(-n2ncc3ccc([C@]4(C#N)CC45CC5)cc32)nc(N)n1` [Example 4.19] yielded a half-inhibitory concentration (IC50) of 0.6 nM.

`Cc1nc(N2CC3(C(C)(C)O)CC2C3)cc(-n2ncc3c(F)cc(C4(C#N)CC45CC5)cc32)n1` (stereo not drawn) [Example 4.16] returned an IC50 of 0.6 nM. Under `CC(C)(O)[C@@H]1CCN(c2cc(-n3ncc4ccc([C@]5(C#N)CC56CC6)cc43)ncn2)C1` [Example 1.4-2, (S)-1-(1-(6-((R)-3-(2-hydroxypropan-2-yl)pyrrolidin-1-yl)pyrimidin-4-yl)-1H-indazol-6-yl)spiro[2.2]pentane-1-carbonitrile] stands 0.9 nM; under `C[C@H]1CN(c2cc(-n3ncc4ccc([C@]5(C#N)CC56CC6)cc43)ncn2)CCN1S(C)(=O)=O` [Example 4.8], 1.2 nM; under `C[C@@H]1CN(c2cc(-n3ncc4ccc([C@@]5(C#N)CC56CC6)cc43)ncn2)CCN1C1CCOC1` (single isomer, unassigned) [Example 3.7-3], 9 nM.

For the compound `CC1C(C(C)(C)O)CCN1c1cc(-n2ncc3ccc([C@]4(C#N)CC45CC5)cc32)ncn1` (single isomer, unassigned) [Example 3.5-2], the IC50 stood at 31.6 nM. Compound `CC(C)(O)C1CN(c2cc(-n3ncc4ccc([C@]5(C#N)CC56CC6)cc43)ncn2)CCO1` (single isomer, unassigned) [Example 4.3-1, 1-(1-(6-(2-(2-hydroxypropan-2-yl)morpholino)pyrimidin-4-yl)-1H-indazol-6-yl)spiro[2.2]pentane-1-carbonitrile] had an IC50 of 1.8 nM. This IC50 is about 18-fold lower than that of the compound before.

For the compound `C[C@H]1CN(c2cc(-n3ncc4ccc([C@]5(C#N)CC56CC6)cc43)ncn2)CCN1C1CCOC1` (stereo partly drawn) [Example 3.8-4], half-maximal inhibition (IC50) required 0.6 nM. As to `C[C@H]1CN(c2cc(-n3ncc4ccc([C@@]5(C#N)CC56CC6)cc43)ncn2)CCN1C1CCOC1` (single isomer, unassigned) [Example 3.8-1], the IC50 came out at 1.6 nM. As to `CC(C)(O)[C@@H]1CCN(c2cc(-n3ncc4cnc(C5(C#N)CC56CC6)cc43)ncn2)C1` (single isomer, unassigned) [Example 5.3-2], the concentration for half-maximal inhibition (IC50) worked out at 0.7 nM. On to `C[C@@H]1CN(c2cc(-n3ncc4ccc([C@@]5(C#N)CC56CC6)cc43)ncn2)CCN1C1CCOC1` (single isomer, unassigned) [Example 3.7-1], for which inhibition was half-maximal at 8 nM (IC50). `CC1C(C(C)(C)O)CCN1c1cc(-n2ncc3ccc([C@]4(C#N)CC45CC5)cc32)ncn1` (single isomer, unassigned) [Example 3.5-8]: the IC50 stood at 1.1 nM. This IC50 is about 7.3-fold lower than that of the compound before.

In the case of `Cc1nc(N2CCN(C3(C)COC3)CC2)cc(-n2ncc3ccc([C@]4(C#N)CC45CC5)cc32)n1` [Example 11.1, (S)-1-(1-(2-methyl-6-(4-(3-methyloxetan-3-yl)piperazin-1-yl)pyrimidin-4-yl)-1H-indazol-6-yl)spiro[2.2]pentane-1-carbonitrile], the half-inhibitory concentration (IC50) worked out at 0.6 nM. The compound `COCc1nc(N2CC3(C(C)(C)O)CC2C3)cc(-n2ncc3ccc(C4(C#N)CC45CC5)cc32)n1` (single isomer, unassigned) [Example 2.3-1, (R or S)-1-(1-(6-(4-(2-hydroxypropan-2-yl)-2-azabicyclo[2.1.1]hexan-2-yl)-2-(methoxymethyl)pyrimidin-4-yl)-1H-indazol-6-yl)spiro[2.2]pentane-1-carbonitrile] came in with a half-inhibitory concentration (IC50) of 1.1 nM. The same measure for `CCc1nc(C)cc(-n2ncc3ccc([C@]4(C#N)CC45CC5)cc32)n1` [Example 4.27]: 3.2 nM; for `CC(C)(O)[C@@H]1CCN(c2cc(-n3ncc4ccc([C@]5(C#N)CC56CC6)cc43)ccn2)C1` [Example 6.2-2]: 0.9 nM. Under `COC1(C(C)(C)O)CCN(c2cc(-n3ncc4ccc([C@@]5(C#N)CC56CC6)cc43)ncn2)C1` (single isomer, unassigned) [Example 3.10-1] stands 15.1 nM. The same measure for `COC1(C(C)(C)O)CCN(c2cc(-n3ncc4ccc([C@]5(C#N)CC56CC6)cc43)ncn2)C1` (single isomer, unassigned) [Example 3.10-4]: 0.9 nM; for `Cc1nc(N2CC3(C2)CN(C2COC2)C3)cc(-n2ncc3ccc([C@]4(C#N)CC45CC5)cc32)n1` [Example 11.3]: 454 nM; for `CC(C)(O)[C@@H]1CN(c2cc(-n3ncc4ccc([C@]5(C#N)CC56CC6)cc43)ncn2)C[C@@H]1F` [Example 4.12-2]: 0.6 nM. The compound `CC1(O)CN(c2cc(-n3ncc4ccc([C@]5(C#N)CC56CC6)cc43)ncn2)C1` [Example 4.2] gave an IC50 of 1.3 nM.

The compound `CC(C)(O)[C@@H]1CCN(c2cc(-n3ncc4cnc(C5(C#N)CC56CC6)cc43)ccn2)C1` (single isomer, unassigned) [Example 6.6-1] yielded an IC50 of 28.5 nM. The same measure for `Cc1nc(N2CC3(C(C)(C)O)CC2C3)cc(-n2ncc3ccc(C4(C#N)CC45CC5)cc32)n1` (single isomer, unassigned) [Example 2.4-2, 1-(1-(6-(4-(2-hydroxypropan-2-yl)-2-azabicyclo[2.1.1]hexan-2-yl)-2-methylpyrimidin-4-yl)-1H-indazol-6-yl)spiro[2.2]pentane-1-carbonitrile]: 0.6 nM; for `CC(C)(O)[C@@H]1CCN(c2cc(-n3ncc4cnc(C5(C#N)CC56CC6)cc43)ncn2)C1` (single isomer, unassigned) [Example 5.3-1]: 7.5 nM.

`CNc1nc(N2CC3(C(C)(C)O)CC2C3)cc(-n2ncc3ccc(C4(C#N)CC45CC5)cc32)n1` (single isomer, unassigned) [Example 2.7-1, 1-(1-(6-(4-(2-hydroxypropan-2-yl)-2-azabicyclo[2.1.1]hexan-2-yl)-2-(methylamino)pyrimidin-4-yl)-1H-indazol-6-yl)spiro[2.2]pentane-1-carbonitrile] registered an IC50 of 3 nM. In turn, `CC(C)(O)[C@@H]1CCN(c2cc(-n3ncc4cnc(C5(C#N)CC56CC6)cc43)ccn2)C1` (single isomer, unassigned) [Example 6.6-2] had a concentration for half-maximal inhibition (IC50) of 3.4 nM. This IC50 and that of the compound before are within 1.5-fold of each other. Under `CS(=O)(=O)N1CCN(c2cc(-n3ncc4ccc([C@]5(C#N)CC56CC6)cc43)ncn2)CC1` [Example 4.7] stands 1.3 nM; under `CC(C)(O)C12CC(C1)N(c1cc(-n3ncc4ccc([C@]5(C#N)CC56CC6)cc43)cc(F)n1)C2` [Example 6.3], 15 nM. Under `Cc1nc(N2CC3(C(C)(C)O)CC2C3)cc(-n2ncc3cc(F)c(C4(C#N)CC45CC5)cc32)n1` (single isomer, unassigned) [Example 5.6-2, 1-(5-fluoro-1-(6-(4-(2-hydroxypropan-2-yl)-2-azabicyclo[2.1.1]hexan-2-yl)-2-methylpyrimidin-4-yl)-1H-indazol-6-yl)spiro[2.2]pentane-1-carbonitrile] stands 1.3 nM; under `CNc1nc(N2CC[C@H](C(F)F)C2)cc(-n2ncc3ccc(C4(C#N)CC45CC5)cc32)n1` (single isomer, unassigned) [Example 2.8-2], 1.1 nM; under `COCc1nc(N2C[C@@H](C)N(C3COC3)[C@@H](C)C2)cc(-n2ncc3ccc([C@]4(C#N)CC45CC5)cc32)n1` [Example 4.6], 0.9 nM.

Consider `CC1(O)CC2(CN(c3cc(-n4ncc5ccc([C@]6(C#N)CC67CC7)cc54)ncn3)C2)C1` [Example 3.9-2], for which the concentration for half-maximal inhibition (IC50) came to 1.5 nM. The same measure for `CC1CN(c2cc(-n3ncc4ccc([C@]5(C#N)CC56CC6)cc43)ncn2)CC1C(C)(C)O` (single isomer, unassigned) [Example 3.6-2]: 0.6 nM; for `C[C@@H]1CN(c2cc(-n3ncc4ccc([C@]5(C#N)CC56CC6)cc43)ncn2)C[C@H](C)[C@]1(C)O` [Example 3.2]: 1.1 nM; for `CC(C)(O)C12CC(C1)N(c1cc(-n3ncc4c(F)cc(C5(C#N)CC56CC6)cc43)ncn1)C2` (single isomer, unassigned) [Example 4.15-1]: 18.4 nM. The compound `CC1C(C(C)(C)O)CCN1c1cc(-n2ncc3ccc([C@@]4(C#N)CC45CC5)cc32)ncn1` (single isomer, unassigned) [Example 3.5-4] registered a half-inhibitory concentration (IC50) of 0.6 nM. The same measure for `CC1CN(c2cc(-n3ncc4ccc([C@@]5(C#N)CC56CC6)cc43)ncn2)CC1C(C)(C)O` (single isomer, unassigned) [Example 3.6-1]: 2.2 nM.
